Test results published in article PMC5107916, “Quantitative fluorescence spectroscopy and flow cytometry analyses of cell-penetrating peptides internalization pathways: optimization, pitfalls, comparison with mass spectrometry quantification” (Scientific Reports, 2016).
Like-named read-outs stand apart in the source and are kept apart here.

Legend:
CHO cells [1] = system: CHO cells
Method: We examined the impact of the concentration of Trypan Blue on cell-associated fluorescence compared to control conditions in the absence of Trypan Blue. Cells were incubated with CF-Penetratin. After washings, different concentrations of Trypan Blue were added before cytometry analysis. […] We next examined the quenching ability of Trypan Blue on increasing CF-Penetratin concentrations.
Figure 7 Quenching assays of membrane-bound fluorescence for flow cytometry internalization quantification. (A) Fluorescence quenching according to Trypan Blue quantity (% in g for 100 mL). […] After washing with cold PBS, cells were analyzed in the absence or the presence of Trypan Blue. Lower panel: Stern-Volmer plot. (B) Quenching of membrane fluorescence was assayed with various experimental conditions: 0.2% Trypan Blue, 0.01% trypsin (5 min, 37 °C), 0.5 mg/mL heparin (3 times 5 min, 37 °C). 20,000 events were recorded for each experimental condition. Data were normalized to 100% fluorescence in the absence of Trypan Blue.
Cells were dissociated with 0.5 mM EDTA in PBS (5 min at 37 °C), centrifuged at 800 g, and suspended in DMEM culture medium. […] To optimize fluorescence quenching of the membrane-bound fluorescein, the cell suspension was treated with different concentrations of Trypan Blue. […] 20,000 events were recorded for every experimental conditions.

[2] = system: Wild type Chinese Hamster Ovary CHO-K1 cells (WT); assay: Fluorometry quantification of internalized CF-peptide in cell lysates; assay type: cell-based; details: for 4 °C - INTERNALIZED, WT (FLUOROMETRY) / 37 °C - INTERNALIZED, WT (FLUOROMETRY): fluorometry of lysate (50 mM Tris pH 7.4, 1 M NaCl, 1% NP40, sonicated), ex 494 nm, calibration curve, 10^6 cells, 7.5 μM peptide in DMEM, 60 min, mean ± spread, n in cell; for 4 °C - INTERNALIZED, WT (FLUOROMETRY): 4 °C (translocation only), 0.05% pronase digestion; for 37 °C - INTERNALIZED, WT (FLUOROMETRY): 0.05% trypsin/EDTA digestion, μM from 1 pL cell volume
Method: (§1) To quantify CPP internalization in cells, we kept the conditions of sample preparation for the measurement of the quantity of internalized and cell-associated (membrane-bound plus internalized) fluorescent peptides previously optimized for a MALDI-TOF MS based protocol, and illustrated in Fig. 3. Briefly, one million adherent cells were incubated with CF-CPP for the indicated time and temperature. […] Cells were then washed, lysed, sonicated and the lysate was cleared by centrifugation. The amount of internalized peptide was quantified by direct measurement of the fluorescence remaining in the supernatant. To evaluate the quantity of cell-associated (membrane-bound and internalized) peptide, the proteolytic step was omitted. A calibration curve was fitted from the fluorescence intensity of definite amounts of the same peptide in cell lysates ran in parallel for each experiment (Fig. 3). Comparison of the fluorescence intensity between the samples and the calibration curve permitted the absolute quantification of internalized and cell-associated peptides.
(§2) Figure 4 Quantification by fluorometry of (A) internalized and (B) membrane-bound CF-Penetratin in WT, GAG^deficient and SA^deficient CHO cells. One million cells were incubated with 2.5 or 7.5 μM CF-Penetratin in DMEM for 60 min at 37 °C or 4 °C. To measure the total cell-associated peptide (membrane-bound plus internalized), cells were washed and lysed in a buffer (50 mM Tris pH 7.4, 1 M NaCl, 1% Nonidet P40), sonicated and centrifuged 10 min at 16,000 g. To obtain the internalized peptide, the membrane-bound peptide was digested with 0.05% trypsin/EDTA (37 °C) or pronase (4 °C). After washes, cells were lysed, sonicated and centrifuged. To calculate the amount of internalized and membrane bound cell peptide, we compare the fluorescence intensity (excitation at 494 nm) to the calibration curve obtained from parallel experiments (see Fig. 3). Error bars correspond to standard errors obtained from n = 4 independent experiments for each experimental condition. Intracellular concentrations (μM) were calculated from the mean volume of one CHO cell (assimilated to a sphere of 10–15 μm diameter) being 1 pL: picomoles in 1 μL (10^6 cells) thus correspond to μM concentrations.
(§3) Wild type Chinese Hamster Ovary CHO-K1 cells (WT), xylose-transferase- or GAG-deficient CHO-pgsA745 cells (GAG^deficient) and sialic acid deficient CHO-lec2 cells (SA^deficient) (ATCC, LGC Standards S.a.r.l. - France) were cultured in F12 growth medium (DMEM-F12) supplemented with 10% fetal calf serum (FCS), penicillin (100,000 IU/L), streptomycin (100,000 IU/L), and amphotericin B (1 mg/L) in a humidified atmosphere containing 5% CO2 at 37 °C.
(§4) One million cells were incubated one hour at 37 °C or 4 °C with CF-Penetratin (2.5 μM and 7.5 μM), Biotin-(CF)Penetratin, CF-Arg9 and CF-TAT (7.5 μM) in 1 mL DMEM.
(§5) To access internalized peptides, after washing cells with HBSS, (0.05%) 500 μL trypsin/EDTA (37 °C, 5 min) or (0.05%) pronase (4 °C, 10 min) was added for 5 min to hydrolyze the remaining extracellular and the membrane-bound peptide and to detach cells. After addition of enzyme inhibitors (100 μL (one Complete Mini tablet, Roche, in 2.5 mL PBS) mixed with 100 μL bovine serum albumin (1 mg/mL), cells were transferred into a microtube, centrifuged, washed with 1 mL 50 mM Tris buffer pH 7.4, 0.1% BSA, and lysed in 200 μL 50 mM Tris pH 7.4, 1 M NaCl, 1% NP40. The samples were then sonicated for 30 min and centrifuged 10 min at 16,000 g.
(§6) To obtain the value of the total cell-associated peptide (internalized and membrane-bound species), after washing cells with HBSS, cells were directly lysed in 50 mM Tris pH 7.4, 1 M NaCl, 1% NP40. The samples were then sonicated for 30 min and centrifuged 10 min at 16,000 g.

[3] = system: sialic acid deficient CHO-lec2 cells (SA^deficient); details: fluorometry of lysate (50 mM Tris pH 7.4, 1 M NaCl, 1% NP40, sonicated), ex 494 nm, calibration curve, 10^6 cells, 7.5 μM peptide in DMEM, 60 min, mean ± spread, n in cell; for 4 °C - INTERNALIZED, SA^deficient (FLUOROMETRY): pronase digestion; for 37 °C - INTERNALIZED, SA^deficient (FLUOROMETRY): trypsin digestion
Method: as §1, §2, §3, §4, §5, §6

[4] = system: GAG-deficient CHO-pgsA745 cells (GAG^deficient); details: fluorometry of lysate (50 mM Tris pH 7.4, 1 M NaCl, 1% NP40, sonicated), ex 494 nm, calibration curve, 10^6 cells, 7.5 μM peptide in DMEM, 60 min, mean ± spread, n in cell; for 4 °C - INTERNALIZED, GAG^deficient (FLUOROMETRY): pronase digestion; for 37 °C - INTERNALIZED, GAG^deficient (FLUOROMETRY): trypsin digestion
Method: as §1, §2, §3, §4, §5, §6

[5] = system: GAG-deficient CHO-pgsA745 cells (GAG^deficient); details: MALDI-TOF MS of lysate, 2H-peptide internal standard, 10^6 adherent cells, 7.5 μM extracellular peptide, 1 h, ref [19], cited from earlier work
[6] = system: sialic acid deficient CHO-lec2 cells (SA^deficient); details: MALDI-TOF MS of lysate, 2H-peptide internal standard, 10^6 adherent cells, 7.5 μM extracellular peptide, 1 h, ref [19], cited from earlier work
[7] = system: Wild type Chinese Hamster Ovary CHO-K1 cells (WT); details: MALDI-TOF MS of lysate, 2H-peptide internal standard, 10^6 adherent cells, 7.5 μM extracellular peptide, 1 h, ref [19], cited from earlier work
[8] = system: GAG-deficient CHO-pgsA745 cells (GAG^deficient); details: MALDI-TOF MS (sinapinic acid matrix), 2H-peptide internal standard, 10^6 adherent cells, 7.5 μM extracellular peptide, 1 h, trypsin digestion
Method: as §1, §3
(§7) The protocol has been fully described elsewhere by Burlina et al.[14][16]. Briefly, one million adherent cells were incubated one hour with biotin-labeled peptides (^1H-CPP). After washing with HBSS, 0.05% trypsin/EDTA (37 °C, 5 min) or 0.05% pronase (4 °C, 10 min) digestion, cells were lysed in a solution containing a relevant quantity of the deuterated form (^2H-CPP) of the same peptide sequence, which is used as internal standard to quantify the internalized amount of ^1H-CPP. MALDI-TOF MS analyses were done using cyano-4-hydroxy-cinnamic acid (CHCA), for Biotin-Penetratin or sinapinic acid for Biotin-(CF)Penetratin. Unless indicated, experiments were performed in triplicates and repeated at least three times independently.

[9] = system: Wild type Chinese Hamster Ovary CHO-K1 cells (WT); details: 7.5 μM extracellular peptide
Method: as §1, §3, §7

CHO cells [10] = assay: Cytotoxicity, Cell Counting Kit 8 (CCK-8); assay type: cell-based, Chinese Hamster; details: 2 × 10^4 CHO cells/well, peptide 1; 5; 10 and 20 μM, 60 min, then 3 h 10% CCK-8, absorbance 450 nm
Method: Cytotoxicity was determined with the Cell Counting Kit 8 (CCK-8) from Dojindo Molecular Technologies. This colorimetric assay allows to measure the viability of cells. 96-well plates were inoculated with 100 μL/well of a suspension of CHO cells (2.10^4 cells/well). […] After washing, the cells were incubated with 100 μL of 10% CCK-8 in DMEM for 3 hours and the absorbance was measured at 450 nm with a microplate reader (Polarstar Optima). Controls corresponded to untreated cells (negative control, 100% viability) and cells treated with 0.2% of Triton X-100 (positive control, 0% viability). Supplementary Figure S1. […] A 96-well plate was inoculated with 100 µL/well of a suspension of CHO cells (2 × 10^4 cells/well). […] Controls corresponded to untreated cells (negative control, 100% viability) and cells treated with 0.2% of Triton X-100 (positive control, 0% viability).

[11] = 37 °C, trypsin digestion, μM from 1 pL cell volume

With “Carboxyfluorescein-Apa-RQIKIWFQNRRMKWKK-NH2 [CF-PEN]” the “difference between total cell-associated and internalized fluorescence signals by flow cytometry” value (CHO cells [1]) was 1.25 to 2 folds, the “4 °C - INTERNALIZED, WT (FLUOROMETRY)” value [2] was 2.4 ± 0.4 (n = 3) μM and the “4 °C - INTERNALIZED, WT (FLUOROMETRY)” value ([2]; listed as CF-Penetratin) was 1 to 2 µM. The “37 °C - INTERNALIZED, WT (FLUOROMETRY)” value [2] was 22 ± 1.3 (n = 11) μM, the “ratio of total cell-associated to internalized peptide by fluorometry” value ([2]; fluorometry of lysates, cell line not given) was ~100 folds and the “4 °C - INTERNALIZED, SA^deficient (FLUOROMETRY)” value [3] was 1.0 ± 0.1 (n = 4) μM. For the same substance, the “4 °C - INTERNALIZED, SA^deficient (FLUOROMETRY)” value ([3]; listed as CF-Penetratin) was 1 to 2 µM, the “37 °C - INTERNALIZED, SA^deficient (FLUOROMETRY)” value [3] was 33 ± 5.3 (n = 4) μM and the “4 °C - INTERNALIZED, GAG^deficient (FLUOROMETRY)” value [4] was 1.7 ± 0.8 (n = 3) μM. The “4 °C - INTERNALIZED, GAG^deficient (FLUOROMETRY)” value ([4]; listed as CF-Penetratin) was 1 to 2 µM and the “37 °C - INTERNALIZED, GAG^deficient (FLUOROMETRY)” value [4] was 7.0 ± 0.5 (n = 4) μM.

In the case of “Biotin-GGGGRQIKIWFQNRRMKWKK-NH2 [Biotin-PEN]”, the “4 °C - INTERNALIZED, GAG^deficient (MALDI-TOF MS)” value ([5]; 4 °C, pronase digestion) is listed as 0.6 ± 0.1 µM, the “37 °C - INTERNALIZED, GAG^deficient (MALDI-TOF MS)” value [5, 11] is listed as 1.9 ± 0.2 µM and the “4 °C - INTERNALIZED, SA^deficient (MALDI-TOF MS)” value ([6]; 4 °C, pronase digestion) is listed as 1.0 ± 0.2 µM. The “37 °C - INTERNALIZED, SA^deficient (MALDI-TOF MS)” value [6, 11] was 6.0 ± 1.0 µM, the “4 °C - INTERNALIZED, WT (MALDI-TOF MS)” value ([7]; 4 °C (translocation only), 0.05% pronase digestion) was 0.9 ± 0.2 µM and the “37 °C - INTERNALIZED, WT (MALDI-TOF MS)” value ([7]; 37 °C, membrane-bound peptide digested with 0.05% trypsin/EDTA, μM from 1 pL cell volume) was 5.0 ± 0.5 µM.

For “Biotin-GGGG(εCF)KRQIKIWFQNRRMKWKK-NH2 [Biotin-(CF)PEN]”, the “37 °C - INTERNALIZED, GAG^deficient (MALDI-TOF MS)” value [8] was “Not detectable”, the “4 °C - INTERNALIZED, WT (MALDI-TOF MS)” value ([9]; MALDI-TOF MS (sinapinic acid matrix), 2H-peptide internal standard, 10^6 adherent cells, 1 h, 4 °C, pronase digestion) was “Not detectable” and the “37 °C - INTERNALIZED, WT (MALDI-TOF MS)” value ([9]; MALDI-TOF MS (sinapinic acid matrix), 2H-peptide internal standard, 10^6 adherent cells, 1 h, 37 °C, trypsin digestion, μM from 1 pL cell volume, mean ± spread, n in cell) was 8.7 ± 1.1 (n = 19) μM. For the same substance, the “intracellular degradation of the internalized peptide, from mass spectra” value ([9]; MALDI-TOF MS of cell lysate, one-hour incubation, 37 °C) was “not quickly degraded”, the “cytotoxicity (cell viability, CCK-8)” value (CHO cells [10]) was “none of the peptides used in this study was cytotoxic” and the “4 °C - INTERNALIZED, WT (FLUOROMETRY)” value [2] was 1.5 ± 0.1 (n = 10) μM. The “37 °C - INTERNALIZED, WT (FLUOROMETRY)” value [2] was 9.8 ±1.0 (n = 14) μM, the “37 °C - INTERNALIZED, SA^deficient (FLUOROMETRY)” value [3] was 6.9 ± 1.8 (n = 3) μM and the “37 °C - INTERNALIZED, GAG^deficient (FLUOROMETRY)” value [4] was 1.1 ± 0.1 (n = 4) μM.
